pEC50, pKi: −log10 of the molar value.

The term pKi denotes −log10 of the Ki, conventionally taken in molar units. By ED50 is commonly meant the dose that gives a 50% effect, or the effect in half of the subjects. As usually defined, the Emax is the size of the effect at its maximum, as opposed to the concentration needed. For orientation: pEC50 means the negative decadic logarithm of the EC50, by convention in mol/L.

For test [1], the target named is T1, Kappa-type opioid receptor (Homo sapiens, UniProt P41145). As to the kind of experiment: Binding affinity to KOR (unknown origin).
T1 sequence (P41145 whole entry): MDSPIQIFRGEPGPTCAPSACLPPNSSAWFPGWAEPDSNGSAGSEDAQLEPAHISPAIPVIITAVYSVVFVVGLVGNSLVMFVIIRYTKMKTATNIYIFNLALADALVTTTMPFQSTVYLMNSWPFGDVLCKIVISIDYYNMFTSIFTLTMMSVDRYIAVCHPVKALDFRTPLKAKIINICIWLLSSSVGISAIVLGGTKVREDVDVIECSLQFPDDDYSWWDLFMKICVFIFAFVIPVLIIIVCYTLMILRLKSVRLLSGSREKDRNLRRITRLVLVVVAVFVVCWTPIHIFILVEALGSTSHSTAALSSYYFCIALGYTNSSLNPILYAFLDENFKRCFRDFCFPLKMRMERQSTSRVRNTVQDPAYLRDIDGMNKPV
The species entered for test [2] is Homo sapiens. The test can be described thus: Selectivity ratio of Ki for MOR (unknown origin) to Ki for KOR (unknown origin).
Test [3] is filed under the species Homo sapiens. The test can be described thus: Selectivity ratio of Ki for DOR (unknown origin) to Ki for KOR (unknown origin).
The subject of test [4] is Mus musculus. As to the kind of experiment: Antinociceptive activity in sc dosed mouse by abdominal constriction assay. Format: functional.
The target of test [5] is T2, Mu-type opioid receptor (Homo sapiens, UniProt P35372). The test can be described thus: Displacement of [3H]DAMGO from MOR (unknown origin) expressed in CHO cell membranes. Background: Loss of bound radioactivity is the signal in a displacement assay; it reports binding, not function.
T2 sequence (P35372 whole entry): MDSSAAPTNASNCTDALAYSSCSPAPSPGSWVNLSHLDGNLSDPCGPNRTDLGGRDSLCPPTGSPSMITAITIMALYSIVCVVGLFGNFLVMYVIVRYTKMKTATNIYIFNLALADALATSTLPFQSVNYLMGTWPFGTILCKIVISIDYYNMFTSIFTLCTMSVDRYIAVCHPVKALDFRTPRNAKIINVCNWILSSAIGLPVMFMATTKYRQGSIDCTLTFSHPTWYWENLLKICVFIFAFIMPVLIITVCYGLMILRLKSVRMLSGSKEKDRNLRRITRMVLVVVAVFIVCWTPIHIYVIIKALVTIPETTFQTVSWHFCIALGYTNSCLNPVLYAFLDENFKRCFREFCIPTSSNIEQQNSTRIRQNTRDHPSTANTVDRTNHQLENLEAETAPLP
The target in test [6] is T3, Delta-type opioid receptor (Homo sapiens, UniProt P41143). The test can be described thus: Displacement of [3H]naltrindole from DOR (unknown origin) expressed in CHO cell membranes.
T3 sequence (P41143 whole entry): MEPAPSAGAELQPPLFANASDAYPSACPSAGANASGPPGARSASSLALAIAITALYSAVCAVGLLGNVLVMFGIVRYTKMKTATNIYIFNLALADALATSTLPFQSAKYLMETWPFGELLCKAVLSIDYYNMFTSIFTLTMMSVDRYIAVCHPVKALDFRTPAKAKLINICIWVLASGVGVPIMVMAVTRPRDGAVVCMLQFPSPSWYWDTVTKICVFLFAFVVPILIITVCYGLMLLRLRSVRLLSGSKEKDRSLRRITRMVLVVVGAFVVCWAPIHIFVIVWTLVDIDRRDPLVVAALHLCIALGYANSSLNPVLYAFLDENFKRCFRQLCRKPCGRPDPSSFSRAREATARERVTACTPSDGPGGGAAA
Test [7] concerns the target T1, Kappa-type opioid receptor. As to the kind of experiment: Displacement of [3H]U69,593 from KOR (unknown origin) expressed in CHO cell membranes.
Test [8] concerns the target T4, G_PROTEIN_RECEP_F1_2 domain-containing protein (Cavia porcellus, UniProt A0A286XTF2). As to the kind of experiment: Displacement of [3H]Naltrindole from DOR in guinea pig brain membranes after 3 hrs by scintillation counting method. Type of test: cell membranes, Membrane.
The target in test [9] is T5, Mu-type opioid receptor (Cavia porcellus, UniProt P97266). The test can be described thus: Displacement of [3H]DAMGO from MOR in guinea pig brain membranes. Type of test: cell membranes, Membrane.
T5 sequence (P97266 whole entry): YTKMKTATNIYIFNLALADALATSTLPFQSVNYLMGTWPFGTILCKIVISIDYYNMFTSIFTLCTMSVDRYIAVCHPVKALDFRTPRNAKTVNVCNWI
Test [10] concerns the target T4, G_PROTEIN_RECEP_F1_2 domain-containing protein. As to the kind of experiment: Displacement of [3H]Naltrindole from DOR in guinea pig brain membranes. Type of test: cell membranes, Membrane.
Test [11] deals with T6, Kappa-type opioid receptor (Cavia porcellus, UniProt P41144). As to the kind of experiment: Displacement of [3H]U69,593 from KOR in guinea pig brain membranes. Format: cell membranes, Membrane.
T6 sequence (P41144 whole entry): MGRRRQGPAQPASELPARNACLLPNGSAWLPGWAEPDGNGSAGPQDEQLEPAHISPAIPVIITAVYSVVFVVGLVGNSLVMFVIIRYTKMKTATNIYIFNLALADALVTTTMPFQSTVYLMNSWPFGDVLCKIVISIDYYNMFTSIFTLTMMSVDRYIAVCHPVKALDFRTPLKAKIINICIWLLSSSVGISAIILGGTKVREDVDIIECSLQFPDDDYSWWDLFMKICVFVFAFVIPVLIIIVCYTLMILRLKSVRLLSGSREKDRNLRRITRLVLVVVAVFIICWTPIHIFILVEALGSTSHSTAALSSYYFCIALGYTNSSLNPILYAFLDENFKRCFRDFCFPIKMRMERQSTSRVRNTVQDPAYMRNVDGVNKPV
Test [12] deals with Kappa-type opioid receptor (Macaca mulatta, UniProt H9FL65). As to the kind of experiment: Displacement of [3H]U69,593 from KOR in monkey brain cortex membranes. Format: cell membranes.
Sequence of Kappa-type opioid receptor (Macaca mulatta, UniProt H9FL65) (H9FL65 whole entry): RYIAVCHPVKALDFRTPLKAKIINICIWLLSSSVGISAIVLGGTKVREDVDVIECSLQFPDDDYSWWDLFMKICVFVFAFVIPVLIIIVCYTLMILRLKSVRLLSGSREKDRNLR
For test [13], the target named is Mu-type opioid receptor (Macaca mulatta, UniProt Q9MYW9). As to the kind of experiment: Displacement of [3H]DAMGO from MOR in monkey brain cortex membranes. Format: cell membranes.
Sequence of Mu-type opioid receptor (Macaca mulatta, UniProt Q9MYW9) (Q9MYW9 whole entry): as the sequence (P35372 whole entry) above, with A6V, Y19H, P26R, A119V, F154S, T227S, V293I, N344D counted along it
Test [14] addresses G_PROTEIN_RECEP_F1_2 domain-containing protein (Macaca mulatta, UniProt F7HEV7). The test can be described thus: Displacement of [3H]naltrindole from DOR in monkey brain cortex membranes. Format: cell membranes.
Test [15] concerns Mus musculus. The test can be described thus: Antinociceptive activity in sc dosed ICR mouse after 20 mins by tail flick test. Format: functional. On the technique in general: Thermal pain tests record how soon the animal reacts.
Test [16] deals with Mus musculus. As to the kind of experiment: Analgesic activity in sc dosed ICR mouse after 30 mins by hot plate test. Format: functional. Particulars: 0.5 h.
For test [17], the species on record is Mus musculus. As to the kind of experiment: Antinociceptive activity in mouse by paraphenylquinone assay. Type of test: functional.
In test [18] the target is T5, Mu-type opioid receptor. The test can be described thus: Displacement of [3H]DAMGO from MOR in guinea pig brain membranes after 60 mins by scintillation counting method. Type of test: cell membranes, Membrane.
In test [19] the target is T6, Kappa-type opioid receptor. The test can be described thus: Displacement of [3H]U69,593 from KOR in guinea pig brain membranes after 60 mins by scintillation counting method. Type of test: cell membranes, Membrane.
Test [20] deals with T2, Mu-type opioid receptor. As to the kind of experiment: Binding affinity to MOR (unknown origin).
Test [21] deals with T3, Delta-type opioid receptor. The test can be described thus: Binding affinity to DOR (unknown origin).
Test [22] addresses T2, Mu-type opioid receptor. As to the kind of experiment: Displacement of [3H]-diprenorphine from MOR (unknown origin) after 1 to 2 hrs by scintillation counting method.
Test [23] has as its target T1, Kappa-type opioid receptor. As to the kind of experiment: Displacement of [3H]U69,593 from human KOR expressed in HEK293 cell membranes after 1 hr by scintillation counting method.
The target of test [24] is T1, Kappa-type opioid receptor. The test can be described thus: Agonist activity at human KOR expressed in HEK293 cell membranes assessed as stimulation of [35S]GTPgammaS binding after 30 mins by scintillation counting method relative to control. Format: functional.
Test [25] addresses T1, Kappa-type opioid receptor. As to the kind of experiment: Agonist activity at human KOR expressed in HEK293 cell membranes assessed as stimulation of [35S]GTPgammaS binding after 30 mins by scintillation counting method. Type of test: functional. In general terms: GTPγS is a poorly hydrolysed GTP analogue; its binding reports G protein activation.
Test [26] has as its system Mus musculus. As to the kind of experiment: Antinociceptive activity in sc dosed mouse assessed as inhibition of PPQ-induced stretching response pretreated for 10 mins followed by PPQ treatment measured for 1 min at 10 to 15 mins post PPQ treatment. Type of test: functional.

T4 sequence (A0A286XTF2 whole entry): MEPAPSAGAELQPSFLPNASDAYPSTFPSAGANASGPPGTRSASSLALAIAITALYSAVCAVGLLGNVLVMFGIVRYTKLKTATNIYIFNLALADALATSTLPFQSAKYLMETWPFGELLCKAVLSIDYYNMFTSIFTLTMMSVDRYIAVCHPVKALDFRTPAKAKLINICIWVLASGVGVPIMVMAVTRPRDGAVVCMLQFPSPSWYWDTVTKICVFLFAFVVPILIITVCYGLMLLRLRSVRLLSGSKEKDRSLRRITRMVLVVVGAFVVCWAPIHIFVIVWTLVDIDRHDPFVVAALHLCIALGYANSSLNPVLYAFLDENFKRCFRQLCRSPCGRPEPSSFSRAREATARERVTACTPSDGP
Sequence of G_PROTEIN_RECEP_F1_2 domain-containing protein (Macaca mulatta, UniProt F7HEV7) (F7HEV7 whole entry): as the sequence (P41143 whole entry) above, with E10A, C27F, S29N, E112K, V179I counted along it

The compound `CCCCC(=N)NCCCCCCNC(=O)[C@H](CC(C)C)NC(=O)CNC(=O)[C@@]1(c2ccccc2)C[C@H]1CN1CC[C@]2(C)c3cc(O)ccc3C[C@@H]1[C@@H]2C` gave a pKi in [1] of 8.28. Besides, the Ratio Ki in the test filed under Homo sapiens [2] was determined as 408; in the test filed under Homo sapiens [3], 424. For the same compound, the 50% effect level in the test on Mus musculus [4] (ED50) was put at a dose of 1.1 mg/kg.
In the case of `C[C@H]1[C@H]2Cc3cc4sc(N)nc4cc3[C@@]1(C)CCN2CC1CC1`, the pKi on Mu-type opioid receptor [5] was 7.32; in test [6], 6.03; in test [7] it was 8.17.
In test [8], `C[C@H]1[C@H]2Cc3ccc(Nc4ccccc4)cc3[C@@]1(C)CCN2CC1CC1` gave a negative-log Ki (pKi) of 8.28.
For the compound `C[C@H]1[C@H]2Cc3ccc(NC=O)cc3[C@]1(C)CCN2CC1CC1`, the negative-log Ki (pKi) was 8.96 on Mu-type opioid receptor [9], 8.01 in test [10] and 9.31 in [11].
For `C[C@H]1[C@H]2Cc3cc4sc(N)nc4cc3[C@@]1(C)CCN2CC1CCC1`, the negative-log Ki (pKi) on Mu-type opioid receptor [5] is 8.08; in test [6], 7.03; in [7] it was 9.31.
As to `C[C@H]1[C@H]2Cc3ccc(O)cc3[C@@]1(C)CCN2CCCC#N`, the pKi in [12] is 9.40; at Mu-type opioid receptor [13], 7.64; in test [14], 8.24. Also, the median effective dose (ED50) was 0.4 mg/kg in the test on Mus musculus [15], 1 mg/kg in the test on Mus musculus [16] and 0.01 mg/kg in the test listed under Mus musculus [17].
`CC1C2Cc3ccc(Nc4cccnc4)cc3C1(C)CCN2CC1CC1` (racemic): the results for the negative logarithm of the Ki (pKi) (at Mu-type opioid receptor [18]; in [8]; in [19]) were 9.19, 7.68 and 9.30, respectively.
In turn, `C[C@H]1[C@H]2Cc3ccc(N)cc3[C@@]1(C)CCN2CC1CC1` had a negative logarithm of the Ki (pKi) in test [8] of 7.92.
`CC1C2Cc3ccc(O)cc3C1(C)CCN2CC1CC1` (racemic): the negative logarithm of the Ki (pKi) in test [8] was 8.96; in test [19], 9.74.
As to `C[C@H]1[C@H]2Cc3ccc(O)cc3[C@@]1(C)CCN2C[C@@H]1C[C@@]1(C(=O)NCc1ccccc1)c1ccccc1`, the pKi in test [1] is 7.46.
Turning to `CC1C2Cc3ccc(C(N)=O)cc3C1(C)CCN2CC1CC1` (racemic), the negative logarithm of the Ki (pKi) in [8] was 8.08.
Consider `C[C@H]1[C@H]2C(=O)c3ccc(O)cc3[C@@]1(C)CCN2CC1CCCO1` (some centres undefined), for which the pKi was 6.14 in test [1], 5.54 on Mu-type opioid receptor [20] and less than 5.00 in [21].
Consider `CCCCC(=N)NCCCCCNC(=O)[C@H](CC(C)C)NC(=O)CNC(=O)[C@@]1(c2ccccc2)C[C@H]1CN1CC[C@]2(C)c3cc(O)ccc3C[C@@H]1[C@@H]2C`, for which the pKi in [1] is 8.17. In addition, the results for the Ratio Ki in the test filed under Homo sapiens [2] and in the test filed under Homo sapiens [3] were 375 and 408, respectively. This compound came in with an ED50 with Mus musculus [4] of 0.88 mg/kg.
As for `C[C@H]1[C@H]2Cc3ccc(O)cc3[C@@]1(C)CCN2CC1CC1`, the results for the pKi in [8] and in test [19] were 9.24 and 10.28, respectively.
For `C[C@H]1[C@H]2Cc3ccc(O)cc3[C@@]1(C)CCN2CCC#N`, the pKi in test [12] was 9.40; on Mu-type opioid receptor [13] it was 8.01; in [14], 8.38. The ED50 came to 0.3 mg/kg with Mus musculus [15], 0.1 mg/kg with Mus musculus [16] and 0.05 mg/kg in the test listed under Mus musculus [17].
For `C=CCN1CC[C@]2(C)c3cc(O)ccc3C[C@@H]1[C@@H]2C`, the negative logarithm of the Ki (pKi) in test [12] is 9.52; on Mu-type opioid receptor [13], 9.05; in test [14] it was 8.26. The compound also showed an ED50 in the test listed under Mus musculus [17] of 0.1 mg/kg.
In the case of `C[C@H]1[C@H]2Cc3ccc(O)cc3[C@@]1(C)CC[N+]2(C)CC1CC1` (some centres undefined), the pKi was 7.64 on Mu-type opioid receptor [22] and 8.36 in test [23]. In addition, the Emax in test [24] is 50%. For the same compound, in test [25], the negative-log EC50 (pEC50) was 7.11.
With `CC1C2Cc3ccc(NC=O)cc3C1(C)CCN2CC1CC1` (racemic), the negative logarithm of the Ki (pKi) on Mu-type opioid receptor [9] is 8.72.
For the compound `COc1ccc(Nc2ccc3c(c2)C2(C)CCN(CC4CC4)C(C3)C2C)cc1` (racemic), the negative-log Ki (pKi) is 9.33 at Mu-type opioid receptor [18], 8.08 in [8] and 9.54 in test [19].
At Mu-type opioid receptor [9], `CCC12CCN(CC3CC3)C(C(=O)c3ccc(NC=O)cc31)C2C` (racemic) gave a negative logarithm of the Ki (pKi) of 8.21.
For `C[C@H]1[C@H]2Cc3ccc(O)cc3[C@@]1(C)CCN2C[C@@H]1CCCO1`, in [8], the pKi was 8.60.
Consider `C#CCCN1CC[C@]2(C)c3cc(O)ccc3C[C@@H]1[C@@H]2C`, for which the figures for the negative-log Ki (pKi) (in [12]; at Mu-type opioid receptor [13]; in test [14]) were 8.85, 8.34 and 8.00, respectively. Moreover, the figures for the 50% effective dose (ED50) in the test on Mus musculus [15], in the test with Mus musculus [16] and in the test listed under Mus musculus [17] were 0.05 mg/kg, 0.04 mg/kg and 0.1 mg/kg, respectively.
In the case of `C[C@H]1[C@H]2Cc3ccc(O)cc3[C@@]1(C)CCN2C[C@@H]1C[C@@]1(CN1CCCCC1)c1ccccc1`, the pKi is 6.75 in [1] and 7.35 at Mu-type opioid receptor [20].
With `C[C@H]1[C@H]2Cc3ccc(O)cc3[C@@]1(C)CCN2CCCCCCO`, the ED50 in the test with Mus musculus [26] stood at 1.9 mg/kg.
As to `C=CCCN1CC[C@]2(C)c3cc(O)ccc3C[C@@H]1[C@@H]2C`, the pKi was 8.89 in test [12], 8.68 at Mu-type opioid receptor [13] and 7.68 in test [14]. Moreover, the ED50 worked out at 0.05 mg/kg in the test with Mus musculus [15], 0.3 mg/kg in the test with Mus musculus [16] and 0.8 mg/kg in the test listed under Mus musculus [17].
On to `C=CC[N+]1(C)CC[C@]2(C)c3cc(O)ccc3C[C@@H]1[C@@H]2C` (some centres undefined), for which the figures for the pKi (on Mu-type opioid receptor [22]; in test [23]) were 7.25 and 7.99, respectively. Further, in test [24], the Emax came out at 27.3%. In addition, the pEC50 in test [25] was 6.57.
Turning to `CCC12CCN(CC3CC3)C(C(=O)c3ccc(O)cc31)C2C` (racemic), the negative logarithm of the Ki (pKi) in [8] was 8.47; at Mu-type opioid receptor [20], 9.11; in test [21] it was 8.47.

(Values after ChEMBL document CHEMBL4196036, “Benzomorphan scaffold for opioid analgesics and pharmacological tools development: A comprehensive review” (Eur J Med Chem, 2018).)
